Laboratory results: patent publication US20190134120A1, “METHODS FOR THE TREATMENT OF BLADDER CANCER” (Viralytics Limited, priority 2013, published 2019)

Tests used:
Type in all cases: cell-based, Human
VMCUB-1 cells = assay: CVA21 cytotoxicity, VMCUB-1 cells; details: FIG. 2b
T24 cells = assay: Synergy between CVA21 and radiotherapy, T24 cells
Description: (§1) Combining CVA21 with the radiotherapy has shown exceptional synergy. When 5637 cells were irradiated (4-10 Gy) then 24 hours later exposed to CVA21 (multiplicities of infection 0.961-12.6), clear synergy was seen (FIG. 3a). […] A comprehensive experimental and analytic method was implemented for this work which allows calculation of combination index values at all data points, and therefore identification of areas of high synergy across the whole response surface (Greco et al. 1995) (FIGS. 3b, 3c).
(§2) In brief, T24/5637 cells were plated at 0.25×10^4/0.5×10^4 cells per well (100 μL) of a 96 well tray and incubated at 37° C. for 24 hrs. Day 2—An extra 100 ul 10% FCS, media was added to the cells. Then they were treated with Rad (Gy 0, 4, 6, 8, 10) on a clinical Varian linear accelerator in St Luke's Cancer Centre, Royal Surrey Hospital UK. Day 2—The plates were returned to the lab and incubated at 37° C. for 24 hrs. Day 3—The medium was removed and 100 ul of CVA21 (MOI 12.5-0.1 in 2% FCS medium) was added and incubated at 37° C. for 72 hrs. Day 6—The medium was removed and 100 μl of fresh 10% FCS medium added and incubated for 24 hrs. Day 7—The medium was removed and 100 μl of diluted MTS reagent (Promega) was added. The plates were then incubated for 1-2 hr and read absorbance at 492 nm. […]

KU19-19 cells = assay: CVA21 cytotoxicity, KU19-19 cells; details: FIG. 2b
5637 cells = assay: Synergy between CVA21 and radiotherapy, 5637 cells; details: 5637 cells irradiated (4-10 Gy)
Description: as §1, §2

With Coxsackievirus A21 [CVA21] the “susceptibility of cell line to CVA21” value (VMCUB-1 cells) was “resistant”, the “interaction of CVA21 with radiation” value (T24 cells) was “Synergy between radiation and CVA21 was confirmed” and the “susceptibility of cell line to CVA21” value (KU19-19 cells) was “resistant”. For the same substance, the “interaction of CVA21 with radiation” value (5637 cells; 24 hours later CVA21) was “clear synergy” and the “combination indices, minima” value (5637 cells; 24 hours later exposed to CVA21 (MOI 0.961-12.6), dose matrix analysis) was “approximately 0.4”.
